# Values joined by “and” are separate entries in the source; they are usually repeats but may differ in a detail not shown here. Identical values can stand only once.
# What was measured:
# two cell lines = conditions: cited from earlier work
# [1] = system: norrie disease protein (NDP); test: Western blotting of NDP relative to β-actin in RGC-5 cells subjected to OGD; type: cell-based, mouse
# Procedure: Moscatilin was purchased from EMMX Biotechnology (EN10271, CA, USA) and dissolved in DMSO (vehicle). […] Moscatilin (0.1 μM) was administered at 1 hour pre-OGD, during OGD, or at 1 hour post-OGD. Its therapeutic effects were evaluated by MTT and Western blotting assays.
# (§1) The RCG-5 cell lines were not transformed rat RGCs but, rather, mouse retinal neuronal precursors. OGDs were defined as cells that were maintained in glucose-free DMEM (Thermo Fisher Scientific Inc.) at 37° C. under the hypoxic (ischemic-like) conditions, namely 1% O2 (monitored by an analyzer; Penguin Incubator: control range 1-89%; Astec Company, Kukuoka, Japan), 94% N2 and 5% CO2. There were different groups, consisting of cells that received (i) DMSO in DMEM (control cells; DMSO+DMEM), (ii) DMSO followed by OGD (DMSO+OGD), (iii) OGD and administration of moscatilin (0.1 μM in DMEM) at 1 hour pre-OGD (Pre-OGD Mos 0.1 μM), (iv) during OGD (During OGD Mos 0.1 μM), or (v) at 1 hour post-OGD (Post-OGD Mos 0.1 μM). At the end of the 1 day OGD period, the cell cultures were returned to fresh DMEM for another 24 h. The MTT (viability) and the Western blotting assays (NDP) were then performed.
# Retinal/cellular samples were retrieved and sonicated in lysis buffer, namely mammalian protein extraction reagent (MPER; HyCell). Identical quantities of denatured proteins (40 μg/30 μl/well) then underwent sodium dodecyl sulfate polyacrylamide gel electrophoresis (SDS-PAGE; Bio-Rad) as described previously. After separation, the protein bands were transferred to a polyvinylidene difluoride (PVDF) membrane and then immersed for 12 hours at 4° C. with the following primary antibodies, mouse monoclonal anti-β-actin antibody (AC-15; 1:2,000; ab6276)/anti-HIF-1α antibody (1:200; H1alpha67-ChIP Grade; Abcam Inc.), rabbit polyclonal anti-VEGF antibody (A-20; 1:200; sc-152)/anti-PKM2 antibody (1:500; ab38237), or rabbit monoclonal anti-RBP2 antibody (ab177486; 1:1000; Abcam Inc.). […] The amount of each protein was then evaluated by scanning densitometry.
# RGC-5 cells = test: MTT cell viability assay of RGC-5 cells subjected to oxygen glucose deprivation (OGD); type: cell-based, mouse; conditions: Mus musculus
# Procedure: (§2) Moscatilin was purchased from EMMX Biotechnology (EN10271, CA, USA) and dissolved in DMSO (vehicle). […] […] Its therapeutic effects were evaluated by MTT and Western blotting assays.
# as §1, with “([…]),” for “(iii) OGD and administration of moscatilin (0.1 μM in DMEM) at 1 hour pre-OGD (Pre-OGD Mos 0.1 μM),”
# (§3) Mitochondria NADPH dependent oxidoreductases were capable of reducing MTT to form formazan. Therefore, an increase in the amount of dark purple formazan corresponded to greater cell viability. MTT (0.5 mg/mL; Sigma-Aldrich) was added and allowed to react for 3 hr at 37° C. to the 96-well plates containing the original 100 μL of cells. The reduced MTT was then solubilized by adding 100 μL DMSO. After agitation of the plates, the OD of the solubilized formazan was measured using an ELISA reader (Synergy H1 Multi-Mode Reader BioTek Instruments) at 562 nm. Cell viability was expressed as OD values relative to the control (100%).
# [2] = as above; type: cell-based, mouse; conditions: mouse, RGC-5 cells subjected to oxygen glucose deprivation (OGD), cytotoxic effect
# Procedure: as §2
# as §1, with “([…]),” for “(iii) OGD and administration of moscatilin (0.1 μM in DMEM) at 1 hour pre-OGD (Pre-OGD Mos 0.1 μM),”
# as §3
# VEGF = test: Western blot of retinal VEGF after I/R; type: in vivo, rat; conditions: intravitreal 1 day pre-ischemia: 10 μM/5 μl JIB-04, 4 μM/5 μl shikonin, 125 μg/5 μl avastin; Vehicle+I/R = 100%
# Procedure: (§4) DNL was purchased from the Ko Da Company (Taipei, Taiwan) and dissolved in ddH2O. For the electrophysiological, immuohistochemical and molecular biological studies, drug administration was carried out for seven days and involved various groups, namely a post-ischemia administration (daily high dose of DNL at 1 g/kg/day, I/R+DNL1.0), or pre-ischemia administration (daily high dose of DNL, DNL1.0+I/R; low dose of DNL at 0.5 g/kg/day, DNL0.5+I/R). The rats in the vehicle group that were subjected to ischemia were either post-administered (I/R+Vehicle) or pre-administered with a similar volume of vehicle (Vehicle+I/R) as the DNL group.
# (§5) As compared with the Sham, Vehicle+I/R or DNL1.0+I/R group, the ischemic eyes of other groups received intravitreal injections using a 30-gauge needle connected to a 25 μl syringe after the pupil was dilated with 1% tropicamide and 2.5% phenylephrine. Specifically, the ischemic eyes received 1 day pre-ischemia intravitreal administrations of various inhibitors/antibodies, namely 10 μM/5 μl JIB-04 (Sigma-Aldrich), 4 μM/5 μl Shikonin (S7576; Sigma-Aldrich), 125 μg/5 μl Avastin (Hoffmann-La Roche), or 200 μg/5 μl Eylea (Regeneron Pharmaceuticals Inc.). One day after retinal I/R and administration of relevant compounds or after a sham procedure, the animals were sacrificed. Retinal samples were collected in order to measure the protein levels of […], RBP2, PKM2, VEGF-A and PLGF by the western blot assay or ELISA.
# (§6) Ischemia induction. Each rat was anesthetized with the above anesthetics and placed in a stereotaxic frame. […]
# (§7) Retinal/cellular samples were retrieved and sonicated in lysis buffer, namely mammalian protein extraction reagent (MPER; HyCell). Identical quantities of denatured proteins (40 μg/30 μl/well) then underwent sodium dodecyl sulfate polyacrylamide gel electrophoresis (SDS-PAGE; Bio-Rad) as described previously. […] The amount of each protein was then evaluated by scanning densitometry.
# HIF-1α = test: Western blot of retinal HIF-1α after I/R; type: in vivo, rat; conditions: intravitreal 1 day pre-ischemia: 10 μM/5 μl JIB-04, 4 μM/5 μl shikonin, 125 μg/5 μl avastin; Vehicle+I/R = 100%
# Procedure: as §4
# (§8) As compared with the Sham, Vehicle+I/R or DNL1.0+I/R group, the ischemic eyes of other groups received intravitreal injections using a 30-gauge needle connected to a 25 μl syringe after the pupil was dilated with 1% tropicamide and 2.5% phenylephrine. […]
# as §7
# PKM2 = test: Western blot of retinal PKM2 after I/R; type: in vivo, rat; conditions: intravitreal 1 day pre-ischemia: 10 μM/5 μl JIB-04, 4 μM/5 μl shikonin, 125 μg/5 μl avastin; Vehicle+I/R = 100%
# Procedure: as §4, §5, §6, §7
# RBP2 = test: Western blot of retinal RBP2 after I/R; type: in vivo, rat; conditions: intravitreal 1 day pre-ischemia: 10 μM/5 μl JIB-04, 4 μM/5 μl shikonin, 125 μg/5 μl avastin; Vehicle+I/R = 100%
# Procedure: as §4, §5, §6, §7
# [3] = system: placental growth factor (PLGF); test: ELISA of retinal PLGF after I/R; type: in vivo, rat; conditions: pre-ischemia intravitreal 200 μg/5 μl Eylea (Eylea+I/R); Vehicle+I/R 39.53±5.25
# Procedure: as §4, §8
# The level of PLGF was determined using ELISA. […] The total protein in each sample was determined using a bicinchoninic acid protein kit (Thermo Fisher Scientific). The PLGF levels in the supernatant were measured using a PLGF ELISA kit (CSB-E07400r; Cusabio Life Scince) accordingly. […] The maximum absorbance (OD) at 450 nm was detected immediately using a microplate reader (Synergy H1 Hybrid Multi-Mode Reader, Biotek ELx800). […]
compound,measurement,setting,value
COc1cc(CCc2cc(OC)c(O)c(OC)c2)ccc1O [moscatilin],IC50,"two cell lines; 24 h, two cell lines, respectively, previous reports, read-out: IC50 of reduced cell viability",7 µM and 6.7 µM
same,toxicity to cells,"two cell lines; concentrations equal to or less than 1 μM, previous researches",non-toxic
same,amount of NDP relative to β-actin,"[1]; 0.1 μM moscatilin 1 hour pre-OGD, DMSO+DMEM = 100%, DMSO+OGD 44.54±3.15%",108.38±29.33%
same,amount of NDP relative to β-actin,[1]; 0.1 μM moscatilin 1 h post-OGD,54.36±3.88%
same,amount of NDP relative to β-actin,[1]; 0.1 μM moscatilin during OGD,48.99±9.89%
same,viability at 0.1 µM,"RGC-5 cells; RGC5, 0.1 μM moscatilin during OGD, P=0.31 vs DMSO+OGD",56 ± 4.08%
same,viability at 1 µM,"RGC-5 cells; RGC5, 1 μM moscatilin pre-OGD, n=4",66.4 ± 9.35%
same,viability at 0.1 µM,"RGC-5 cells; RGC5, 1 h, 0.1 μM moscatilin at 1 hour post-OGD, P=0.41 vs DMSO+OGD",52.6 ± 4.16%
same,viability at 0.1 µM,"RGC-5 cells; RGC5, 1 h, 0.1 μM moscatilin at 1 hour pre-OGD, relative to DMSO+DMEM control (100%), DMSO+OGD 53.66±2.67%",62.6 ± 4.35%
same,viability at 10 μM,"[2]; 10 μM moscatilin pre-OGD, n=4",15.4 ± 3.09%
same,viability at 100 μM,"[2]; 100 μM moscatilin pre-OGD, n=1",12.5%
CC(C)=CC[C@@H](O)C1=CC(=O)c2c(O)ccc(O)c2C1=O [shikonin],level of VEGF (ratio to β-actin),VEGF,57.55±9.40%
same,level of HIF-1α (ratio to β-actin),HIF-1α,42.65±0.76%
same,level of PKM2 (ratio to β-actin),PKM2,44.94±10.91%
same,level of RBP2 (ratio to β-actin),RBP2,3.40±0.23%
Clc1ccc(N/N=C(\c2ccccc2)c2ccccn2)nc1 [JIB-04],level of VEGF (ratio to β-actin),VEGF,27.82±1.21%
same,level of HIF-1α (ratio to β-actin),HIF-1α,53.98±2.29%
same,level of PKM2 (ratio to β-actin),PKM2,60.36±7.59%
same,level of RBP2 (ratio to β-actin),RBP2,5.83±1.43%
avastin: VEGF antibody (Hoffmann-La Roche),level of VEGF (ratio to β-actin),VEGF,5.38±2.51%
same,level of PKM2 (ratio to β-actin),PKM2,84.44±4.53%
same,level of RBP2 (ratio to β-actin),RBP2,78.35±3.29%
Eylea: VEGF trap/anti-PLGF (Regeneron Pharmaceuticals Inc.),level of PLGF,[3],6.44 ± 0.60 pg/mL

# Source: patent US10493044B1, “Method for treating developmental retinal vascular disorder” (priority 2018, dated 2019)
